{"source": "patent US20040248171A1", "about": "“Cancer monitoring by aberrant promotor methylation of the transcription factor genes PAX5 alpha PAX5 beta, novel loop helix loop protein, novel gene 2, and beta 3 genes” (Lovelace Respiratory Research Institute, priority 2001, published 2004)", "type_in_all_cases": "cell-based, human", "key": {"β-actin gene expression": {"tested_on": "β-actin gene expression", "assay": "RT-PCR analysis for expression of the housekeeping gene β-actin after DAC treatment", "settings": "MCF7, MDA-MB 231, T47D, Calu6 cell lines, 1 μM DAC, 72 h", "description": "(§1) Reverse transcription-PCR (RT-PCR) was conducted on cDNA from three breast cancer cell lines (MCF7, MDA-MB 231, and T47D) and one lung cancer cell line (Calu6) to determine the relationship between methylation of the PAX5 α and β genes and transcription. […] Reference is made to FIG. 3A, showing an MSP analysis of breast and lung cancer cell lines. Bisulfite-modified DNA was amplified with stage-2 primers specific for methylated alleles. […] Expression of the PAX5 α and β genes was restored in non-expressing cell lines following DAC treatment. Expression of the β-actin gene was determined as a control for RNA integrity.\n(§2) 5-Aza-2′-deoxycytidine Treatment and RT-PCR. Re-expression studies were performed using three breast cancer cell lines (MCF7, MDA-MB-23 1, and T47D) and one lung cancer cell line (Calu6). […] The expression of the PAX5 α and β transcripts were determined by reverse transcription (RT)-PCR using the exon 1α forward primer (5′-[…]-3′) and the exon 1β forward primer (5′-[…]-3′) with an exon 2 reverse primer (5′-[…]-3′). β-actin was also amplified as a control for RNA integrity.\n(§3) PCR amplification was performed at 94° C. for 10 min; then 35 cycles of 94° C. for 30 s, 64° C. for 30 s, and 72° C. for 30 s; and a 5-min final extension at 72° C. PCR products were analyzed on a 3% agarose gel containing ethidium bromide and visualized under UV illumination."}, "PAX5 β gene expression": {"tested_on": "PAX5 β gene expression", "assay": "RT-PCR analysis for expression of the PAX5 β gene after DAC treatment", "description": "as §1, §2, §3"}, "PAX5 α gene expression": {"tested_on": "PAX5 α gene expression", "assay": "RT-PCR analysis for expression of the PAX5 α gene after DAC treatment", "settings": "for PAX5 α transcript expression: 1 μM DAC, 72 h", "description": "as §1\n5-Aza-2′-deoxycytidine Treatment and RT-PCR. Re-expression studies were performed using three breast cancer cell lines (MCF7, MDA-MB-23 1, and T47D) and one lung cancer cell line (Calu6). Cell lines were treated for 3 days in culture media with 1 μM DAC (Sigma Chemical Co.). Total RNA was prepared using Trizol (Life Technologies, Inc.), and 3 μg aliquots were reverse-transcribed using the Superscript kit (Life Technologies, Inc.). The expression of the PAX5 α and β transcripts were determined by reverse transcription (RT)-PCR using the exon 1α forward primer (5′-[…]-3′) and the exon 1β forward primer (5′-[…]-3′) with an exon 2 reverse primer (5′-[…]-3′). β-actin was also amplified as a control for RNA integrity.\nas §3"}, "[1]": {"settings": "non-expressing breast and lung cancer cell lines, 1 μM DAC for 72 h (FIG. 3B)"}}}
{"molecule": "Nc1ncn([C@H]2C[C@H](O)[C@@H](CO)O2)c(=O)n1", "note": "[DAC, 5-Aza-2′-deoxycytidine]", "values": [{"measurement": "expression of the housekeeping gene β-actin", "setting": "β-actin gene expression", "result": "did not affect"}, {"measurement": "Expression of the PAX5 β gene", "setting": "PAX5 β gene expression; [1]", "result": "restored"}, {"measurement": "PAX5 β transcript expression", "setting": "PAX5 β gene expression; the other three cell lines (MCF7, MDA-MB 231, Calu6), 1 μM DAC, 72 h", "result": "restored expression"}, {"measurement": "PAX5 α transcript expression", "setting": "PAX5 α gene expression; Calu6 lung cancer cell line", "result": "increased expression"}, {"measurement": "PAX5 α transcript expression", "setting": "PAX5 α gene expression; MDA-MB231 breast cancer cell line", "result": "restored expression"}, {"measurement": "PAX5 α transcript expression", "setting": "PAX5 α gene expression; T47D breast cancer cell line", "result": "restored expression"}, {"measurement": "Expression of the PAX5 α gene", "setting": "PAX5 α gene expression; [1]", "result": "restored"}]}
